Source: US20110027185A1, “Methods of Screening for Anti-Angiogenic Compounds” (priority 2007, published 2011)

What was measured:
[1] = system: B16-BL6 melanoma cells; conditions: same dosage (1.8 mg/kg); cited from earlier work
[2] = system: PC-3 cell lines of human prostate cancer; conditions: cited from earlier work
[3] = system: HUVEC; assay: HUVEC cell migration (chemotaxis) assay, Boyden chamber (NCI); format: cell-based, human; conditions: Homo sapiens, 5 h
Description: Angiogenesis assays were provided by the NCI, details of the assay protocols are given below. In each assays TNP-470 and paclitaxel (Taxol®) were used as reference compounds. Migration was assessed using the 48-well Boyden chamber and 8 μm pore size collagen-coated (10 μg/mL rat tail collagen; Collaborative Laboratories) polycarbonate filters (Osmonics, Inc.). The bottom chamber wells received 27-29 μL of DMEM medium alone (baseline) or medium containing chemo-attractant (bFGF, VEGF or Swiss 3T3 cell conditioned medium). The top chambers received 45 μL of HUVEC cell suspension (1×10^6 cells/mL) prepared in DMEM+1% BSA with or without test compound. After 5 h incubation at 37° C., the membrane was rinsed in PBS, fixed and stained in Diff-Quick solutions. The filter was placed on a glass slide with the migrated cells facing down and cells on top were removed using a Kimwipe. The testing was performed in 4-6 replicates and five fields were counted from each well. Negative, unstimulated, control values were subtracted from stimulated control and drug treated values and data was plotted as mean migrated cell±S.D. The IC50 was calculated from the plotted data.

[4] = system: HUVEC; assay: HUVEC cord formation assay on matrigel (NCI); format: cell-based, human; conditions: Homo sapiens, 24 h
Description: Angiogenesis assays were provided by the NCI, details of the assay protocols are given below. In each assays TNP-470 and paclitaxel (Taxol®) were used as reference compounds. Matrigel (60 μL of 10 mg/mL; Collaborative Lab #35423) was placed in each well of an ice-cold 96-well plate. The plate was allowed to sit at room temperature for 15 minutes then it was incubated at 37° C. for 30 minutes to permit the matrigel to polymerize. In the mean time, HUVEC were prepared in EGM-2 (Clonetic #CC3162) at a concentration of 2×10^5 cells/mL. […] The cells (500 μL) and the drug at 2 times concentration (500 μL) were mixed and 200 μL of this suspension was placed in duplicate on the polymerized matrigel. After 24 h incubation, triplicate pictures were taken for each concentration using a Bioquant Image Analysis system. Drug effect (IC50) is assessed compared to untreated controls by measuring the length of cords formed and number of junctions.

[5] = system: HUVEC; assay: HUVEC growth inhibition assay (NCI); format: cell-based, human; conditions: Homo sapiens, 72 h, crystal violet
Description: Angiogenesis assays were provided by the NCI, details of the assay protocols are given below. In each assays TNP-470 and paclitaxel (Taxol®) were used as reference compounds. HUVEC (1.5×10^3) were plated in a 96-well plate in 100 μL of EBM-2 (Clonetic #CC3162). […] On day 0, one plate was stained with 0.5% crystal violet in 20% methanol for 10 minutes, rinsed with water, and air-dried. The remaining plates were incubated for 72 h at 37° C. After 72 h, plates were stained with 0.5% crystal violet in 20% methanol, rinsed with water and air-dried. The stain was eluted with 1:1 solution of ethanol:0.1 M sodium citrate (including day 0 plate), and absorbance was measured at 540 nm with an ELISA reader (Dynatech Laboratories). Day 0 absorbance was subtracted from the 72 h plates and data was plotted as percentage of control proliferation (vehicle treated cells).

[6] = molecular target: T1, FBP21 (Homo sapiens, UniProt O75554); assay: Phage display biopanning with biotinylated bait, Human Colon Tumour Library; format: binding; conditions: SDS and E. coli elution
T1 construct: encode 99 amino acids in frame with the phage coat protein of which a segment of 83 residues share 100% homology with FBP21; purchased Novagen; host or cells: T7 phage amplified in E. coli BLT5403
T1 sequence (O75554 with tags, fused parts or gaps): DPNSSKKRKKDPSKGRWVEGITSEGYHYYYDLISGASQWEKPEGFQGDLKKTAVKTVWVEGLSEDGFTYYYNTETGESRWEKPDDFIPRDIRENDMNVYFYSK
Description: Streptavidin wells were incubated with 1 μM biotinylated probe at 4° C. overnight to prepare the wells for biopanning. After incubation, unbound biotinylated probe was removed from the well by washing with phosphate buffered saline (PBS). Wells were then blocked with blocking solution (3% skimmed milk in PBS) for at least one hour at room temperature. Blocked wells were then briefly washed with PBS and were ready for biopanning use. […] In the first round of biopanning, 0.15 mL of amplified phage library was added to an empty streptavidin coated well and incubated at room temperature for at least 1 hour. This step was included to deselect any phage displaying streptavidin binding proteins. After incubation, the phage were removed from the well and mixed with 50 μL 4× blocking solution (12% skimmed milk in PBS) and incubated at room temperature for at least one hour. 0.125 mL of blocked phage library was added to each pre-prepared biotinylated well and incubated at room temperature for at least one hour. […] After incubation, unbound phage were removed from the well with wash solution. The wash solution was varied depending on the round of biopanning. For first round of biopanning PBS1 was used. For subsequent rounds the stringency of the wash was increased by using sequentially PBS2, PBS3 and PBS4 (see Table I). […]

[7] = system: VEGFxxx and VEGFxxxb expression in RPE cells; assay: VEGF isoform ELISA of media of treated RPE cells; format: cell-based; conditions: 0.5 μM or 5 μM, 72 hours
Description: Media was sampled after 72 hours treatment, and assessed for total VEGF and VEGFxxxb expression (see Bates et al., 2002, Woolard et al., 2004 and Varey et al., 2008 for methods).

[8] = system: WiDr cell lines of human colon cancer; conditions: cited from earlier work
[9] = system: Lewis lung adenocarcinoma; conditions: Lewis lung adenocarcinoma model; cited from earlier work
[10] = system: human umbilical vein endothelial cells (HUVEC); conditions: cited from earlier work
[11] = system: capillary tube formation; conditions: rat aorta matrix culture model, cited from earlier work
[12] = system: WiDr cells induced angiogenesis; conditions: 1.8 mg/kg intraperitoneal injection, mouse dorsal air sac model; cited from earlier work
[13] = system: protein synthesis in the cultured rat cells; conditions: cited from earlier work

Compound: C[C@@H]1C[C@H](C)C[C@H](C)[C@@H](O)CC(=O)O[C@H]([C@@H]2CCC[C@H]2C(=O)O)C/C=C/C=C(/C#N)[C@H](O)[C@@H](C)C1 [Borrelidin]
- formation of spontaneous lung metastases of B16-BL6 melanoma cells [1]: effective for the inhibition of the formation of spontaneous lung metastases
- effect against PC-3 cell lines [2]: also against PC-3 cell lines
- IC50 [3]: 0.063 µM
- IC50 [4]: 0.0465 µM
- IC50 [5]: 0.00325 µM
- identification of FBP21 fragment by biopanning (binding) [6]: consistently identified an FBP21 fragment
- VEGFxxx expression (ELISA) [7]: significant downregulation
- VEGFxxxb expression (ELISA) [7]: significant upregulation
- effect against WiDr cell lines [8]: effective against WiDr cell lines
- propagation of metastatic nodules after removal of the primary tumour [9]: weakly inhibited
- anti-proliferative activity towards HUVEC, IC50 ([10]; cell growth assay): 6 ng/mL
- HUVEC anti-proliferative IC50 weaker than anti-angiogenesis activity ([10]; measured in the same medium): 15 fold
- inhibition of capillary tube formation, IC50 [11]: 0.4 ng/mL
- IC50 ([11]; read-out: inhibition of capillary tube formation, IC50): 0.0008 µM
- increment of vascular volume induced by WiDr cells [12]: significantly reduce the increment of vascular volume
- anti-angiogenesis IC50 lower than IC50 for inhibition of protein synthesis [13]: 50 fold
- inhibition of protein synthesis, IC50 ([13]; cultured rat cells): 20 ng/mL
